Measured values as given in PubChem BioAssay AID194 (DTP/NCI, 2004).
Values joined by “and” are separate entries in the source; they are usually repeats but may differ in a detail not shown here. Identical values can stand only once. Results filed as inconclusive are left out.

System: BDF1 mice, B16 melanoma s.c., survival/tumor T/C
Test: NCI In Vivo Anticancer Drug Screen. Data for tumor model B16 Melanoma (subcutaneous) in B6D2F1 (BDF1) mice
Details: endpoint: median survival time, higher = longer survival
Method: The antitumor activity of compounds was measured in mice bearing transplantable tumors. Survival or tumor size were measured and the results are expressed as the measurement made in the treated group (T) divided by the measurement made in the vehicle treated control group (C). The tumor model used in this assay is B16 Melanoma (subcutaneous) in B6D2F1 (BDF1) mice

[1] = dose: 16.0 mg/kg/injection, schedule: Q01DX009 (ip), vehicle: water
[2] = dose: 32.0 mg/kg/injection, schedule: Q01DX009 (ip), vehicle: water
[3] = dose: 8.0 mg/kg/injection, schedule: Q01DX009 (ip), vehicle: saline
[4] = dose: 12.5 mg/kg/injection, schedule: Q04DX003 (ip), vehicle: saline
[5] = dose: 16.0 mg/kg/injection, schedule: Q01DX009 (ip), vehicle: saline
[6] = dose: 25.0 mg/kg/injection, schedule: Q04DX003 (ip), vehicle: saline
[7] = dose: 32.0 mg/kg/injection, schedule: Q01DX009 (ip), vehicle: saline
[8] = dose: 100.0 mg/kg/injection, schedule: Q04DX003 (ip), vehicle: saline

`COc1cc2c(c(OC)c1OC)-c1cc3c(cc1[C@@H](OC(C)=O)[C@@H]1COC(=O)[C@H]1C2)OCO3` was tested, and the T/C (dose: 0.62 mg/kg/injection, schedule: Q01DX009 (ip), vehicle: Klucel (hydroxypropylcellulose) (HPC)) was 100 % of control, the T/C (dose: 1.25 mg/kg/injection, schedule: Q01DX009 (ip), vehicle: Klucel (hydroxypropylcellulose) (HPC)) was 88 % of control and 89 % of control and the T/C (dose: 2.5 mg/kg/injection, schedule: Q01DX009 (ip), vehicle: Klucel (hydroxypropylcellulose) (HPC)) was 97 % of control. For the same compound, the T/C (dose: 5.0 mg/kg/injection, schedule: Q01DX009 (ip), vehicle: Klucel (hydroxypropylcellulose) (HPC)) was 105 % of control and 116 % of control and the T/C (dose: 10.0 mg/kg/injection, schedule: Q01DX009 (ip), vehicle: Klucel (hydroxypropylcellulose) (HPC)) was 109 % of control.

`ClC1=NC(Cl)C(Cl)=N/C1=N\c1ncn[nH]1` (stereo unspecified) was tested, and the T/C (dose: 4.0 mg/kg/injection, schedule: Q01DX009 (ip), vehicle: Klucel (hydroxypropylcellulose) (HPC)) was 106 % of control, the T/C (dose: 4.0 mg/kg/injection, schedule: Q01DX009 (ip), vehicle: water) was 89 % of control and the T/C (dose: 8.0 mg/kg/injection, schedule: Q01DX009 (ip), vehicle: Klucel (hydroxypropylcellulose) (HPC)) was 113 % of control. The T/C (dose: 16.0 mg/kg/injection, schedule: Q01DX009 (ip), vehicle: Klucel (hydroxypropylcellulose) (HPC)) was 101 % of control, the T/C [1] was 170 % of control and the T/C [2] was 121 % of control.

In the case of `CCC1=C(C[C@H]2NCCc3cc(OC)c(OC)cc32)C[C@H]2c3cc(OC)c(OC)cc3CCN2C1`, the T/C (dose: 2.0 mg/kg/injection, schedule: Q01DX005 (ip), vehicle: saline) is reported as 87 % of control, the T/C (dose: 4.0 mg/kg/injection, schedule: Q01DX005 (ip), vehicle: saline) is reported as 93 % of control and the T/C (dose: 8.0 mg/kg/injection, schedule: Q01DX005 (ip), vehicle: saline) is reported as 110 % of control. For the same compound, the T/C (dose: 16.0 mg/kg/injection, schedule: Q01DX005 (ip), vehicle: saline) was 114 % of control.

`CCC(c1ccc(OC(=O)Cc2ccc(N(CCCl)CCCl)cc2)cc1)C(CC)c1ccc(OC(=O)Cc2ccc(N(CCCl)CCCl)cc2)cc1` (stereo unspecified) was tested, and the T/C (dose: 80.0 mg/kg/injection, schedule: Q01DX009 (ip), vehicle: saline with Tween-80) was 102 % of control, the T/C (dose: 120.0 mg/kg/injection, schedule: Q01DX009 (ip), vehicle: saline with Tween-80) was 106 % of control and the T/C (dose: 180.0 mg/kg/injection, schedule: Q01DX009 (ip), vehicle: saline with Tween-80) was 93 % of control. For the same compound, the T/C (dose: 270.0 mg/kg/injection, schedule: Q01DX009 (ip), vehicle: saline with Tween-80) was 102 % of control and the T/C (dose: 405.0 mg/kg/injection, schedule: Q01DX009 (ip), vehicle: saline with Tween-80) was 90 % of control.

`COC1=C2C[C@@H](C)C[C@@H](OC)[C@@H](O)[C@H](C)/C=C(\C)[C@@H](OC(N)=O)[C@H](OC)/C=C\C=C(/C)C(=O)NC(=CC1=O)C2=O` was tested, and the T/C (dose: 0.5 mg/kg/injection, schedule: Q01DX005 (ip), vehicle: water) was 118 % of control and the T/C (dose: 1.0 mg/kg/injection, schedule: Q01DX005 (ip), vehicle: water) was 105 % of control.

`CCC(=O)OCC(=O)[C@]1(O)Cc2c(O)c3c(c(O)c2[C@@H](OC2CC(N)C(O)C(C)O2)C1)C(=O)c1c(OC)cccc1C3=O` (stereo partly specified) was tested, and the T/C (dose: 0.25 mg/kg/injection, schedule: Q01DX009 (ip), vehicle: saline) was 90 % of control, the T/C (dose: 0.5 mg/kg/injection, schedule: Q01DX009 (ip), vehicle: saline) was 118 % of control and the T/C (dose: 1.0 mg/kg/injection, schedule: Q01DX009 (ip), vehicle: saline) was 102 % of control.

With `C[C@H](CN1CC(=O)NC(=O)C1)N1CC(=O)NC(=O)C1` the T/C (dose: 6.25 mg/kg/injection, schedule: Q04DX003 (ip), vehicle: saline) was 122 % of control, the T/C [3] was 109 % of control and the T/C [4] was 102 % of control. For the same compound, the T/C [5] was 119 % of control, the T/C [1] was 96 % of control and the T/C [6] was 115 % of control. The T/C [7] was 112 % of control, the T/C [2] was 109 % of control and the T/C (dose: 50.0 mg/kg/injection, schedule: Q04DX003 (ip), vehicle: saline) was 111 % of control. The T/C [8] was 115 % of control, the T/C (dose: 200.0 mg/kg/injection, schedule: Q04DX003 (ip), vehicle: saline) was 122 % of control and the T/C (dose: 800.0 mg/kg/injection, schedule: Q04DX003 (ip), vehicle: saline) was 115 % of control.

In the case of `CC1(C)N=C(N)N=C(N)N1c1ccc(OCCOc2ccc(S(=O)(=O)F)cc2)c(Cl)c1`, the T/C [4] is reported as 104 % of control, the T/C [6] is reported as 104 % of control and the T/C [8] is reported as 109 % of control.

For `Nc1nncs1`, the T/C (dose: 59.0 mg/kg/injection, schedule: Q01DX009 (ip), vehicle: saline with Tween-80) was 108 % of control, the T/C (dose: 1200.0 mg/kg/injection, schedule: Q04DX003 (ip), vehicle: saline with Tween-80) was 121 % of control and the T/C (dose: 1800.0 mg/kg/injection, schedule: Q04DX003 (ip), vehicle: saline with Tween-80) was 104 % of control. The T/C (dose: 2000.0 mg/kg/injection, schedule: Q01DX001 (ip), vehicle: saline with Tween-80) was 108 % of control and the T/C (dose: 3000.0 mg/kg/injection, schedule: Q01DX001 (ip), vehicle: saline with Tween-80) was 113 % of control.

`Cc1cc2oc(=O)c3c(c2c(O)c1CN1CCN(C)CC1)CCCC3` was tested, and the T/C (dose: 64.0 mg/kg/injection, schedule: Q01DX009 (ip), vehicle: Klucel (hydroxypropylcellulose) (HPC)) was 110 % of control and the T/C (dose: 128.0 mg/kg/injection, schedule: Q01DX009 (ip), vehicle: Klucel (hydroxypropylcellulose) (HPC)) was 113 % of control.

For `O=C(O)CC(NC(=O)CP(=O)(O)O)C(=O)O` (stereo unspecified), the T/C (dose: 153.0 mg/kg/injection, schedule: Q01DX009 (ip), vehicle: saline) was 110 % of control and the T/C (dose: 1140.0 mg/kg/injection, schedule: Q01DX001 (ip), vehicle: saline) was 114 % of control.

For `CCN(CC)CCCC(C)Nc1c2ccc(Cl)cc2nc2ccc(OC)cc12` (stereo unspecified), the T/C (dose: 8.0 mg/kg/injection, schedule: Q01DX009 (ip), vehicle: saline with Tween-80) was 116 % of control, the T/C [3] was 96 % of control and the T/C (dose: 8.0 mg/kg/injection, schedule: Q01DX009 (ip), vehicle: suspension in saline) was 119 % of control. The T/C (dose: 16.0 mg/kg/injection, schedule: Q01DX009 (ip), vehicle: saline with Tween-80) was 96 % of control and 118 % of control, the T/C [5] was 100 % of control and the T/C (dose: 16.0 mg/kg/injection, schedule: Q01DX009 (ip), vehicle: suspension in saline) was 121 % of control. For the same compound, the T/C (dose: 32.0 mg/kg/injection, schedule: Q01DX009 (ip), vehicle: saline with Tween-80) was 100 % of control and 108 % of control, the T/C [7] was 99 % of control and the T/C (dose: 32.0 mg/kg/injection, schedule: Q01DX009 (ip), vehicle: suspension in saline) was 116 % of control. For the same compound, the T/C (dose: 64.0 mg/kg/injection, schedule: Q01DX009 (ip), vehicle: saline with Tween-80) was 102 % of control and 110 % of control, the T/C (dose: 64.0 mg/kg/injection, schedule: Q01DX009 (ip), vehicle: saline) was 95 % of control and the T/C (dose: 64.0 mg/kg/injection, schedule: Q01DX009 (ip), vehicle: suspension in saline) was 121 % of control. The T/C (dose: 128.0 mg/kg/injection, schedule: Q01DX009 (ip), vehicle: saline with Tween-80) was 102 % of control and the T/C (dose: 128.0 mg/kg/injection, schedule: Q01DX009 (ip), vehicle: suspension in saline) was 119 % of control.

For `CC1(C)N=C(N)N=C(N)N1c1ccc(CCCCc2cccc(S(=O)(=O)F)c2)c(Cl)c1`, the T/C (dose: 12.0 mg/kg/injection, schedule: Q01DX009 (ip), vehicle: saline) was 121 % of control and the T/C (dose: 18.0 mg/kg/injection, schedule: Q01DX009 (ip), vehicle: saline) was 98 % of control.

For `O=NN(CCF)C(=O)NC1CCS(=O)(=O)CC1`, the T/C (dose: 24.0 mg/kg/injection, schedule: Q01DX001 (ip), vehicle: other) was 156 % of control and the T/C (dose: 32.0 mg/kg/injection, schedule: Q01DX001 (ip), vehicle: other) was 175 % of control.

With `C[C@@H]1CC[C@@]2(NC1)O[C@H]1C[C@H]3[C@@H]4CC=C5C[C@@H](O)CC[C@]5(C)[C@H]4CC[C@]3(C)[C@H]1[C@@H]2C` the T/C (dose: 0.78 mg/kg/injection, schedule: Q01DX009 (ip), vehicle: Klucel (hydroxypropylcellulose) (HPC)) was 121 % of control, the T/C (dose: 1.56 mg/kg/injection, schedule: Q01DX009 (ip), vehicle: Klucel (hydroxypropylcellulose) (HPC)) was 121 % of control and the T/C (dose: 6.25 mg/kg/injection, schedule: Q01DX009 (ip), vehicle: Klucel (hydroxypropylcellulose) (HPC)) was 120 % of control.

`CS(=O)(=O)OCCCNCCCOS(C)(=O)=O` was tested, and the T/C (dose: 5.0 mg/kg/injection, schedule: Q01DX009 (ip), vehicle: saline) was 106 % of control, the T/C (dose: 10.0 mg/kg/injection, schedule: Q01DX009 (ip), vehicle: saline) was 110 % of control and the T/C (dose: 20.0 mg/kg/injection, schedule: Q01DX009 (ip), vehicle: saline) was 92 % of control.

In the case of `O=NN(CCF)C(=O)NC1CCC(=O)NC1=O` (stereo unspecified), the T/C (dose: 3.11 mg/kg/injection, schedule: Q01DX007 (ip), vehicle: Klucel (hydroxypropylcellulose) (HPC)) is reported as 121 % of control, the T/C (dose: 5.18 mg/kg/injection, schedule: Q01DX007 (ip), vehicle: Klucel (hydroxypropylcellulose) (HPC)) is reported as 124 % of control and the T/C (dose: 8.64 mg/kg/injection, schedule: Q01DX007 (ip), vehicle: Klucel (hydroxypropylcellulose) (HPC)) is reported as 164 % of control.
